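48-hour exposure; five concentrations; linearly interpolated endpoints. Abbreviation: GI50, concentration required for 50% inhibition of growth. Definition used: TGI = concentration required for complete inhibition of growth.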
What was measured:
Assay in all cases: NCI-60 cell line screen, 48 h
RPMI-8226 leukemia = tested on: RPMI-8226 leukemia
A498 renal = tested on: A498 renal
IGROV1 ovarian = tested on: IGROV1 ovarian
RXF 393 renal = tested on: RXF 393 renal
HL-60(TB) leukemia = tested on: HL-60(TB) leukemia
U251 CNS = tested on: U251 CNS
K-562 leukemia = tested on: K-562 leukemia
HCT-116 colon = tested on: HCT-116 colon
NCI-H460 lung = tested on: NCI-H460 lung
HT29 colon = tested on: HT29 colon
MALME-3M melanoma = tested on: MALME-3M melanoma
UACC-257 melanoma = tested on: UACC-257 melanoma
NCI/ADR-RES ovarian = tested on: NCI/ADR-RES ovarian
KM12 colon = tested on: KM12 colon
ACHN renal = tested on: ACHN renal
PC-3 prostate = tested on: PC-3 prostate
M14 melanoma = tested on: M14 melanoma
OVCAR-5 ovarian = tested on: OVCAR-5 ovarian
HS 578T breast = tested on: HS 578T breast
SF-268 CNS = tested on: SF-268 CNS
SW-620 colon = tested on: SW-620 colon
HOP-92 NSCLC = tested on: HOP-92 NSCLC
SK-MEL-28 melanoma = tested on: SK-MEL-28 melanoma
CCRF-CEM leukemia = tested on: CCRF-CEM leukemia
MCF7 breast = tested on: MCF7 breast
NCI-H522 lung = tested on: NCI-H522 lung
UACC-62 melanoma = tested on: UACC-62 melanoma
SK-MEL-2 melanoma = tested on: SK-MEL-2 melanoma
COLO 205 colon = tested on: COLO 205 colon
A549 NSCLC = tested on: A549 NSCLC
NCI-H226 lung = tested on: NCI-H226 lung
OVCAR-4 ovarian = tested on: OVCAR-4 ovarian
786-0 renal = tested on: 786-0 renal
SK-OV-3 ovarian = tested on: SK-OV-3 ovarian
NCI-H23 lung = tested on: NCI-H23 lung
MDA-MB-435 = tested on: MDA-MB-435
HCC-2998 colon = tested on: HCC-2998 colon
MOLT-4 leukemia = tested on: MOLT-4 leukemia
BT-549 breast = tested on: BT-549 breast
HOP-62 NSCLC = tested on: HOP-62 NSCLC
CAKI-1 renal = tested on: CAKI-1 renal
MDA-MB-231 breast = tested on: MDA-MB-231 breast
SNB-19 CNS = tested on: SNB-19 CNS
OVCAR-8 ovarian = tested on: OVCAR-8 ovarian
UO-31 renal = tested on: UO-31 renal
TK-10 renal = tested on: TK-10 renal
SK-MEL-5 melanoma = tested on: SK-MEL-5 melanoma
DU-145 prostate = tested on: DU-145 prostate
SNB-75 CNS = tested on: SNB-75 CNS
SR leukemia = tested on: SR leukemia
SN12C renal = tested on: SN12C renal
HCT-15 colon = tested on: HCT-15 colon
OVCAR-3 ovarian = tested on: OVCAR-3 ovarian
SF-295 CNS = tested on: SF-295 CNS
SF-539 CNS = tested on: SF-539 CNS
LOX IMVI melanoma = tested on: LOX IMVI melanoma

With `Cc1cc(C)c(/C=C2\C(=O)Nc3ccc(NC(=O)CCCCCCC(=O)NO)cc32)[nH]1` the GI50 (RPMI-8226 leukemia) was over 100 µM, the TGI (RPMI-8226 leukemia) was over 100 µM and the GI50 (A498 renal) was 1.4 µM. It also gave a TGI (A498 renal) of 18.2 µM, a GI50 (IGROV1 ovarian) of 2.86 µM and a TGI (IGROV1 ovarian) of over 100 µM. It also gave a GI50 (RXF 393 renal) of 1.17 µM, a TGI (RXF 393 renal) of over 75.2 µM and a GI50 (HL-60(TB) leukemia) of 0.506 µM. The TGI (HL-60(TB) leukemia) was over 100 µM, the GI50 (U251 CNS) was 0.529 µM and the TGI (U251 CNS) was 10.4 µM. The GI50 (K-562 leukemia) was 0.373 µM, the TGI (K-562 leukemia) was over 100 µM and the GI50 (HCT-116 colon) was 0.3 µM. The TGI (HCT-116 colon) was 4.86 µM, the GI50 (NCI-H460 lung) was over 50.6 µM and the TGI (NCI-H460 lung) was over 100 µM. The GI50 (HT29 colon) was 0.859 µM, the TGI (HT29 colon) was over 100 µM and the GI50 (MALME-3M melanoma) was 0.237 µM. For the same molecule, the TGI (MALME-3M melanoma) was over 27.4 µM, the GI50 (UACC-257 melanoma) was 0.418 µM and the TGI (UACC-257 melanoma) was over 100 µM. It also gave a GI50 (NCI/ADR-RES ovarian) of over 100 µM, a TGI (NCI/ADR-RES ovarian) of over 100 µM and a GI50 (KM12 colon) of 7.2 µM. The TGI (KM12 colon) was over 100 µM, the GI50 (ACHN renal) was 6.18 µM and the TGI (ACHN renal) was over 100 µM. The GI50 (PC-3 prostate) was 0.684 µM, the TGI (PC-3 prostate) was over 100 µM and the GI50 (M14 melanoma) was 0.75 µM. For the same molecule, the TGI (M14 melanoma) was over 100 µM, the GI50 (OVCAR-5 ovarian) was 1.09 µM and the TGI (OVCAR-5 ovarian) was over 54.1 µM. It also gave a GI50 (HS 578T breast) of 2.96 µM, a TGI (HS 578T breast) of over 100 µM and a GI50 (SF-268 CNS) of 1.62 µM. The TGI (SF-268 CNS) was over 100 µM, the GI50 (SW-620 colon) was 0.317 µM and the TGI (SW-620 colon) was 36.2 µM. The GI50 (HOP-92 NSCLC) was 0.47 µM, the TGI (HOP-92 NSCLC) was over 100 µM and the GI50 (SK-MEL-28 melanoma) was 0.525 µM. The TGI (SK-MEL-28 melanoma) was over 100 µM, the GI50 (CCRF-CEM leukemia) was 0.311 µM and the TGI (CCRF-CEM leukemia) was over 100 µM. For the same molecule, the GI50 (MCF7 breast) was 0.529 µM, the TGI (MCF7 breast) was over 100 µM and the GI50 (NCI-H522 lung) was 0.208 µM. For the same molecule, the TGI (NCI-H522 lung) was 1.82 µM, the GI50 (UACC-62 melanoma) was 0.407 µM and the TGI (UACC-62 melanoma) was 2.75 µM. It also gave a GI50 (SK-MEL-2 melanoma) of 1.89 µM, a TGI (SK-MEL-2 melanoma) of 49.8 µM and a GI50 (COLO 205 colon) of 0.479 µM. It also gave a TGI (COLO 205 colon) of 2.32 µM, a GI50 (A549 NSCLC) of over 100 µM and a TGI (A549 NSCLC) of over 100 µM. It also gave a GI50 (NCI-H226 lung) of over 100 µM, a TGI (NCI-H226 lung) of over 100 µM and a GI50 (OVCAR-4 ovarian) of 8.34 µM. For the same molecule, the TGI (OVCAR-4 ovarian) was over 100 µM, the GI50 (786-0 renal) was 15.1 µM and the TGI (786-0 renal) was over 100 µM. It also gave a GI50 (SK-OV-3 ovarian) of 0.664 µM, a TGI (SK-OV-3 ovarian) of 4.56 µM and a GI50 (NCI-H23 lung) of 3.79 µM. The TGI (NCI-H23 lung) was over 100 µM, the GI50 (MDA-MB-435) was 0.44 µM and the TGI (MDA-MB-435) was over 100 µM. The GI50 (HCC-2998 colon) was 5.68 µM, the TGI (HCC-2998 colon) was over 100 µM and the GI50 (MOLT-4 leukemia) was 0.43 µM. It also gave a TGI (MOLT-4 leukemia) of 35.3 µM, a GI50 (BT-549 breast) of 4.43 µM and a TGI (BT-549 breast) of over 100 µM. The GI50 (HOP-62 NSCLC) was 0.485 µM, the TGI (HOP-62 NSCLC) was 9.83 µM and the GI50 (CAKI-1 renal) was over 100 µM. For the same molecule, the TGI (CAKI-1 renal) was over 100 µM, the GI50 (MDA-MB-231 breast) was 1.37 µM and the TGI (MDA-MB-231 breast) was 60 µM. For the same molecule, the GI50 (SNB-19 CNS) was 0.93 µM, the TGI (SNB-19 CNS) was over 100 µM and the GI50 (OVCAR-8 ovarian) was 0.638 µM. The TGI (OVCAR-8 ovarian) was over 100 µM, the GI50 (UO-31 renal) was over 100 µM and the TGI (UO-31 renal) was over 100 µM. For the same molecule, the GI50 (TK-10 renal) was 3.1 µM, the TGI (TK-10 renal) was over 100 µM and the GI50 (SK-MEL-5 melanoma) was 0.335 µM. For the same molecule, the TGI (SK-MEL-5 melanoma) was 14.7 µM, the GI50 (DU-145 prostate) was 1.49 µM and the TGI (DU-145 prostate) was over 100 µM. The GI50 (SNB-75 CNS) was 0.227 µM, the TGI (SNB-75 CNS) was over 100 µM and the GI50 (SR leukemia) was 0.416 µM. The TGI (SR leukemia) was over 100 µM, the GI50 (SN12C renal) was over 20.4 µM and the TGI (SN12C renal) was over 100 µM. The GI50 (HCT-15 colon) was over 100 µM, the TGI (HCT-15 colon) was over 100 µM and the GI50 (OVCAR-3 ovarian) was 0.882 µM. For the same molecule, the TGI (OVCAR-3 ovarian) was over 78.2 µM, the GI50 (SF-295 CNS) was 1.44 µM and the TGI (SF-295 CNS) was over 45.7 µM. For the same molecule, the GI50 (SF-539 CNS) was 0.521 µM, the TGI (SF-539 CNS) was over 100 µM and the GI50 (LOX IMVI melanoma) was 0.493 µM. The TGI (LOX IMVI melanoma) was 12.9 µM.
